Data reported in PubChem BioAssay (NCI).
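Each compound was tested at five concentrations against cells in 96-well plates for 48 hours. The concentration for full growth arrest is given as TGI.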

Tests used:
Experiment in all cases: NCI tumour cell line growth inhibition, 48 h
[1] = system: A498 renal
[2] = system: HOP-18 NSCLC
[3] = system: SR leukemia
[4] = system: K-562 leukemia
[5] = system: UACC-62 melanoma
[6] = system: SNB-75 CNS
[7] = system: XF 498 CNS
[8] = system: COLO 205 colon
[9] = system: LOX IMVI melanoma
[10] = system: U251 CNS
[11] = system: SNB-78 CNS
[12] = system: CAKI-1 renal
[13] = system: NCI-H460 lung
[14] = system: 786-0 renal
[15] = system: SF-268 CNS
[16] = system: KM12 colon
[17] = system: MALME-3M melanoma
[18] = system: SK-MEL-5 melanoma
[19] = system: OVCAR-3 ovarian
[20] = system: HT29 colon
[21] = system: TK-10 renal
[22] = system: ACHN renal
[23] = system: RXF 393 renal
[24] = system: KM20L2 colon
[25] = system: OVCAR-4 ovarian
[26] = system: SNB-19 CNS
[27] = system: HCT-116 colon
[28] = system: IGROV1 ovarian
[29] = system: HOP-92 NSCLC
[30] = system: A549 NSCLC
[31] = system: OVCAR-5 ovarian
[32] = system: SW-620 colon
[33] = system: SN12C renal
[34] = system: CCRF-CEM leukemia
[35] = system: SF-295 CNS
[36] = system: HOP-62 NSCLC
[37] = system: DMS 273 small cell lung
[38] = system: HL-60(TB) leukemia
[39] = system: SK-MEL-2 melanoma
[40] = system: SK-MEL-28 melanoma
[41] = system: OVCAR-8 ovarian
[42] = system: EKVX NSCLC
[43] = system: DMS 114 small cell lung
[44] = system: UACC-257 melanoma
[45] = system: HCT-15 colon
[46] = system: RPMI-8226 leukemia
[47] = system: DLD-1 colon
[48] = system: M19-MEL melanoma
[49] = system: SF-539 CNS
[50] = system: NCI-H23 lung
[51] = system: NCI-H226 lung
[52] = system: P388/ADR leukemia
[53] = system: SK-OV-3 ovarian
[54] = system: NCI-H522 lung
[55] = system: MCF7 breast
[56] = system: MOLT-4 leukemia
[57] = system: SN12K1 renal
[58] = system: UO-31 renal
[59] = system: P388 leukemia
[60] = system: HCC-2998 colon
[61] = system: NCI/ADR-RES ovarian

Compound: COc1ccc(C2=NC(C)(C)CO2)cc1
- TGI [1]: > 100 µM
- TGI [2]: > 100 µM
- TGI [3]: > 100 µM
- TGI [4]: > 100 µM
- TGI [5]: > 100 µM
- TGI [6]: > 100 µM
- TGI [7]: > 100 µM
- TGI [8]: > 100 µM
- TGI [9]: > 100 µM
- TGI [10]: > 100 µM
- TGI [11]: > 100 µM
- TGI [12]: > 100 µM
- TGI [13]: > 100 µM
- TGI [14]: > 100 µM
- TGI [15]: > 100 µM
- TGI [16]: > 100 µM
- TGI [17]: > 100 µM
- TGI [18]: > 100 µM
- TGI [19]: > 100 µM
- TGI [20]: > 100 µM
- TGI [21]: > 100 µM
- TGI [22]: > 100 µM
- TGI [23]: > 100 µM
- TGI [24]: > 100 µM
- TGI [25]: > 100 µM
- TGI [26]: > 100 µM
- TGI [27]: > 100 µM
- TGI [28]: > 100 µM
- TGI [29]: > 100 µM
- TGI [30]: > 100 µM
- TGI [31]: > 100 µM
- TGI [32]: > 100 µM
- TGI [33]: > 100 µM
- TGI [34]: > 100 µM
- TGI [35]: > 100 µM
- TGI [36]: > 100 µM
- TGI [37]: > 100 µM
- TGI [38]: > 100 µM
- TGI [39]: > 100 µM
- TGI [40]: > 100 µM
- TGI [41]: > 100 µM
- TGI [42]: > 100 µM
- TGI [43]: > 100 µM
- TGI [44]: > 100 µM
- TGI [45]: > 100 µM
- TGI [46]: > 100 µM
- TGI [47]: > 100 µM
- TGI [48]: > 100 µM
- TGI [49]: > 100 µM
- TGI [50]: > 100 µM

Compound: CCOC(=O)C(C)NC(=O)N(C)C12CC3CC(CC(C3)C1)C2 (configuration not stated)
- TGI [51]: 489 µM
- TGI [52]: > 409 µM
- TGI [1]: 442 µM
- TGI [2]: > 500 µM
- TGI [4]: > 500 µM
- TGI [5]: > 474 µM
- TGI [6]: 227 µM
- TGI [7]: 453 µM
- TGI [8]: > 316 µM
- TGI [9]: 323 µM
- TGI [10]: > 500 µM
- TGI [11]: > 500 µM
- TGI [12]: > 404 µM
- TGI [13]: > 442 µM
- TGI [15]: > 500 µM
- TGI [16]: > 281 µM
- TGI [17]: 497 µM
- TGI [18]: 286 µM
- TGI [19]: > 479 µM
- TGI [20]: > 500 µM
- TGI [23]: > 455 µM
- TGI [53]: 493 µM
- TGI [24]: > 500 µM
- TGI [54]: > 451 µM
- TGI [25]: > 472 µM
- TGI [26]: > 500 µM
- TGI [27]: > 500 µM
- TGI [28]: > 500 µM
- TGI [29]: 283 µM
- TGI [55]: 395 µM
- TGI [56]: 420 µM
- TGI [30]: > 500 µM
- TGI [31]: > 500 µM
- TGI [32]: 494 µM
- TGI [33]: > 500 µM
- TGI [57]: > 500 µM
- TGI [58]: 492 µM
- TGI [34]: 430 µM
- TGI [35]: > 500 µM
- TGI [36]: > 422 µM
- TGI [37]: > 500 µM
- TGI [38]: 272 µM
- TGI [39]: > 316 µM
- TGI [59]: 231 µM
- TGI [40]: > 500 µM
- TGI [41]: > 500 µM
- TGI [42]: > 500 µM
- TGI [60]: > 500 µM
- TGI [43]: 312 µM
- TGI [44]: 406 µM
- TGI [45]: 490 µM
- TGI [46]: 422 µM
- TGI [61]: 424 µM
- TGI [47]: > 79.3 µM
- TGI [48]: > 452 µM
- TGI [49]: > 500 µM
- TGI [50]: 441 µM
